Like-named read-outs stand apart in the source and are kept apart here.
System: clinical isolates of Aspergillus fumigatus
Assay: Broth microdilution checkerboard MIC, RPMI medium (pH 7.0), drugs alone and combined
Format: cell-based
Settings: for MIC: Aspergillus fumigatus
Method: The broth microdillution method using RPMI medium (pH 7.0) was used, comparing the each drug alone (Test Compound, AMPH-B, ITCZ, Nikkomycin X and 5-FC) and combined for each clinical isolates of Aspergillus fumigatus. A combination of drug concentrations was evaluated by the checkerboard method.
All tubes were examined macroscopically for growth and compared to a control (no drug). MIC was visually determined as the lowest concentration resulting in prominent decrease in turbidity compared to controls.
The Fractional Inhibitory Concentration (FIC) for each drug in mixture wells was compared to the MIC for each drug alone. The FIC index was calculated from the sum of the FICs for the two drugs. A quantitative expression of the interaction for inhibition is as follows: Synergy≦0.5; Test Result In vitro combination with Test Compound and AMPH-B against A. fumigatus

With `Nc1[nH]c(=O)ncc1F` [5-FC, flucytosine] the “MIC 5-FC Combination” value (A. fumigatus FP1990, in combination with Test Compound) was 8 µg/mL and the MIC (A. fumigatus FP1990, drug alone, read-out: MIC 5-FC Alone) was over 32 µg/mL.

With `C[C@@H]1[C@H](O)[C@@H](C)/C=C/C=C/C=C/C=C/C=C/C=C/C=C/[C@H](O[C@@H]2O[C@H](C)[C@@H](O)[C@H](N)[C@@H]2O)C[C@@H]2O[C@](O)(C[C@@H](O)C[C@@H](O)[C@H](O)CC[C@@H](O)C[C@@H](O)CC(=O)O[C@H]1C)C[C@H](O)[C@H]2C(=O)O` [AMPH-B, amphotericin B] the “MIC AMPH-B Alone” value (A. fumigatus 8004, drug alone) was 2 µg/mL and the “MIC AMPH-B Combination” value (A. fumigatus 8004, in combination with Test Compound) was 0.5 µg/mL.

`CCC(C)n1ncn(-c2ccc(N3CCN(c4ccc(OCC5COC(Cn6cncn6)(c6ccc(Cl)cc6Cl)O5)cc4)CC3)cc2)c1=O` (stereo not shown) [ITCZ, itraconazole] was tested, and the “MIC ITCZ Combination” value (A. fumigatus 8008, in combination with Test Compound) was 0.125 µg/mL and the MIC (A. fumigatus 8008, drug alone, read-out: MIC ITCZ Alone) was 0.5 µg/mL.

In the case of `C[C@@H]([C@H](N)C(=O)N[C@H](C(=O)O)[C@H]1OC(n2cc(C=O)nc2O)[C@H](O)[C@@H]1O)[C@H](O)c1ccc(O)cn1` (stereo partly shown) [Nikkomycin X, nikkomycin X], the “MIC Nikkomycin X Alone” value (A. fumigatus FP1923, drug alone) is reported as 128 µg/mL and the “MIC Nikkomycin X Combination” value (A. fumigatus FP1923, in combination with Test Compound) is reported as 4 µg/mL.

For `CCCCCOc1ccc(-c2cc(-c3ccc(C(=O)NC4CC(O)C(O)NC(=O)C5C(O)C(C)CN5C(=O)C(C(O)CC(N)=O)NC(=O)C(C(O)C(O)c5ccc(O)c(OS(=O)(=O)[O-])c5)NC(=O)C5CC(O)CN5C(=O)C(C(C)O)NC4=O)cc3)no2)cc1.[Na+]` (stereo not shown) [Test Compound], the “MIC Test Compound Combination” value (A. fumigatus 8004, in combination with AMPH-B) was 0.0078 µg/mL, the “MIC Test Compound Combination” value (A. fumigatus 8008, in combination with ITCZ) was 0.0078 µg/mL and the “MIC Test Compound Combination” value (A. fumigatus FP1923, in combination with Nikkomycin X) was “≦0.001 μg/ml”. For the same compound, the “MIC Test Compound Combination” value (A. fumigatus FP1990, in combination with 5-FC) was 0.002 µg/mL, the MIC (read-out: MIC Test Compound Alone, A. fumigatus 8004, drug alone) was 0.0313 µg/mL and the MIC (read-out: MIC Test Compound Alone, A. fumigatus 8008, drug alone) was 0.0313 µg/mL. The MIC (read-out: MIC Test Compound Alone, A. fumigatus FP1923, drug alone) was 0.0039 µg/mL and the MIC (read-out: MIC Test Compound Alone, A. fumigatus FP1990, drug alone) was 0.0078 µg/mL.
